The results in this text go back to US8772344B2, “Pharmaceutical composition for inhibiting osteoclast growth” (National Defense Medical Center, priority 2011, dated 2014).

Test [1] relates to osteoclasts from bone marrow-derived macrophages. Put plainly: Osteoclast formation from bone marrow-derived macrophages (M-CSF and RANKL), TRAP staining and count of multinucleated cells. Format: cell-based, DBA/1J mice. Particulars: for effect for inhibiting osteoclast growth: comparison among the nine compounds of table 1, cell system not stated; for inhibiting osteoclasts grown (observation of plates, FIG. 2A) / numbers of osteoclasts as a function of concentration (FIG. 3): bone marrow-derived macrophages; for inhibiting osteoclasts grown (observation of plates, FIG. 2A): 10 nM, 15 nM and 20 nM, effect positive proportional to the concentration; for numbers of osteoclasts as a function of concentration (FIG. 3): compared to the contrast containing M-CSF and RANKL only. As to the method:
Bone marrow cells (BMCs) from DBA/1J mice were obtained for osteoclast progenitor cell preparation. The BMCs were isolated from the tibias and femurs of 8-wk-old male mice by flushing the bone marrow cavity with PBS. The cells were then centrifuged at 1000 g for 10 min and exposed to 5 ml of hypotonic ACK buffer ([…], and 0.1 mM EDTA, (pH 7.4)) at room temperature for […] to remove the red blood cells. They were incubated with α-MEM (Gibco BRL) containing penicillin (100 U/ml), streptomycin (100 μg/ml) and 10% heat-inactivated FBS for 12 hr to separate the floating and adherent cells. The floating cells were collected, suspended in α-MEM, counted, seeded onto a 96-well plate at 4×10^4 cells/well, and cultured in α-MEM in the presence of 30 ng/ml M-CSF for 3 days to form macrophage-like osteoclast precursor cells. […] On day 3, the medium was replaced with fresh medium containing M-CSF, RANKL and P. amboinicus.
(§1) TRAP staining was performed as described Han et al. 2007. Briefly, cells were washed with PBS and fixed with 3.7% formaldehyde for 30 min. After washing with PBS, cells were incubated at 37 in a humid and light-protected incubator for 1 hr in the reaction mixture of the Leukocyte Acid Phosphatase Assay kit (Cat. 387, Sigma), as directed by the manufacturer. Cells were washed three times with distilled water and TRAP-positive multinucleated cells containing five or more nuclei were counted under a light microscope. To measure TRAP activity, cells were lysed in 150λ of 0.2% Triton X-100 in PBS, RT for 15 min and then incubated with 100λ of phosphatase substrate solution kit (Cat. CS0740, Sigma) at 37 for 30 min. After incubation, the enzyme reaction mixture was transferred to another plate and the reaction was stopped with 100λ of 0.5N NaOH. Absorbance was measured at 405 nm in a ELISA plate reader, and activity calculated from standard curve generated using p-nitrophenol standards. TRAP activity was normalized to total protein (determined by the BCA assay (Cat. 23225, PIERCE)) as well as to total number of nuclei counted after TRAP and hematoxylin staining of a second, identical 96-well plate run in conjunction with that used for the TRAP assay.
(§2) Please refer to FIG. 1A and FIG. 1B, bone marrow-derived macrophages were plated in a plate A with M-CSF (FIG. 1A) and a plate B with M-CSF and RANKL (FIG. 1B) and murine RAW264.7 were plated in a plate C (FIG. 1C) and a plate D with RANKL (FIG. 1D) separately. After a period, the growth of the osteoclast in the plate A (plate C) is different from that in the plate B (plate D). According to the abovementioned, M-CSF and RANKL secreted by the osteoblasts will promote the growth of the osteoclast. Therefore, the growth of the osteoclast cannot be seen in the plate A. In the contrast, there are a lot of osteoclasts grown in the plate B.

For a further test, the system named is murine RAW264.7. Put plainly: Osteoclast differentiation of murine RAW264.7 cells (RANKL), TRAP staining and count of multinucleated cells. It counts as cell-based. Particulars: for inhibiting osteoclasts grown (observation of plates, FIG. 2B): 10 nM, 15 nM and 20 nM, effect positive proportional to the concentration; for numbers of osteoclasts as a function of concentration (FIG. 4): compared to the contrast containing RANKL only. Here is the method: Murine RAW264.7 (murine leukemic monocyte/macrophage), a type of osteoclast progenitor cells. The murine monocyte/macrophage cell line RAW264.7 was cultured with DMEM (Gibco BRL) containing 10% heat-inactivated FBS, penicillin (100 U/ml), and streptomycin (100 μg/ml). All cells were grown in a humidified atmosphere containing 5% CO^2 at 37. To induce osteoclast differentiation, RAW264.7 cells were suspended in α-MEM containing 10% FBS, 2 mM […], 100 U/ml penicillin, and 100 μg/ml streptomycin, seeded at 10^4 cells/dish in a 96-well plate and cultured with 100 ng/ml soluble RANKL for 5 days. The medium was changed on day 3.
as §1, §2

With `O=C(Nc1cccc(C(F)(F)F)c1)c1ccccc1O` [Compound 1, 2-hydroxy-N-[3-(trifluoromethyl)phenyl]benzamide], the “effect for inhibiting osteoclast growth” value in test [1] is on record as “most significant effect for inhibiting osteoclast growth”.

In the case of `C#Cc1cccc(NC(=O)c2ccccc2O)c1` [Compound 3, N-(3-ethynylphenyl)-2-hydroxybenzamide], in test [1], the “inhibiting osteoclasts grown (observation of plates, FIG. 2A)” value is reported as “have the effect for inhibiting osteoclasts grown”; the “numbers of osteoclasts as a function of concentration (FIG. 3)” value (“numbers of osteoclasts … (FIG. 3)” below) was “can inhibit osteoclasts grown”; the “effect for inhibiting osteoclast growth” value is given as “most significant effect for inhibiting osteoclast growth”. In the test on murine RAW264.7, the “inhibiting osteoclasts grown (observation of plates, FIG. 2B)” value is “have the effect for inhibiting osteoclasts grown” and the “numbers of osteoclasts as a function of concentration (FIG. 4)” value (shortened to “numbers of osteoclasts … (FIG. 4)”) was “can inhibit osteoclasts grown”.

Turning to `O=C(Nc1ccc(F)c(F)c1)c1ccccc1O` [Compound 5, N-(3,4-difluorophenyl)-2-hydroxybenzamide], in test [1], the “inhibiting osteoclasts grown (observation of plates, FIG. 2A)” value is recorded as “have the effect for inhibiting osteoclasts grown”; the “numbers of osteoclasts … (FIG. 3)” value is “can inhibit osteoclasts grown”; the “effect for inhibiting osteoclast growth” value is “most significant effect for inhibiting osteoclast growth”. For the same molecule, in the test with murine RAW264.7, the “inhibiting osteoclasts grown (observation of plates, FIG. 2B)” value is listed as “have the effect for inhibiting osteoclasts grown” and the “numbers of osteoclasts … (FIG. 4)” value is listed as “can inhibit osteoclasts grown”.

Take `O=C(Nc1ccc(Cl)cc1F)c1ccccc1O` [Compound 6, N-(4-chloro-2-fluorophenyl)-2-hydroxybenzamide]: in test [1], the “inhibiting osteoclasts grown (observation of plates, FIG. 2A)” value was “have the effect for inhibiting osteoclasts grown”; the “numbers of osteoclasts … (FIG. 3)” value is “can inhibit osteoclasts grown”; the “effect for inhibiting osteoclast growth” value is given as “most significant effect for inhibiting osteoclast growth”. Moreover, in the test on murine RAW264.7, the “inhibiting osteoclasts grown (observation of plates, FIG. 2B)” value is given as “have the effect for inhibiting osteoclasts grown” and the “numbers of osteoclasts … (FIG. 4)” value was “can inhibit osteoclasts grown”.
